The values below are quoted from earlier work in patent US12618855B2, “Serum protein biomarker panel for idiopathic pulmonary fibrosis” (Children's Hospital Medical Center, priority 2019, dated 2026).

The data set addresses p110β (Homo sapiens, UniProt P42338). To be noted: p110β compared with p110α, p110-γ and p110-δ (equipotent).

p110β, sequence (P42338 whole entry, species assumed): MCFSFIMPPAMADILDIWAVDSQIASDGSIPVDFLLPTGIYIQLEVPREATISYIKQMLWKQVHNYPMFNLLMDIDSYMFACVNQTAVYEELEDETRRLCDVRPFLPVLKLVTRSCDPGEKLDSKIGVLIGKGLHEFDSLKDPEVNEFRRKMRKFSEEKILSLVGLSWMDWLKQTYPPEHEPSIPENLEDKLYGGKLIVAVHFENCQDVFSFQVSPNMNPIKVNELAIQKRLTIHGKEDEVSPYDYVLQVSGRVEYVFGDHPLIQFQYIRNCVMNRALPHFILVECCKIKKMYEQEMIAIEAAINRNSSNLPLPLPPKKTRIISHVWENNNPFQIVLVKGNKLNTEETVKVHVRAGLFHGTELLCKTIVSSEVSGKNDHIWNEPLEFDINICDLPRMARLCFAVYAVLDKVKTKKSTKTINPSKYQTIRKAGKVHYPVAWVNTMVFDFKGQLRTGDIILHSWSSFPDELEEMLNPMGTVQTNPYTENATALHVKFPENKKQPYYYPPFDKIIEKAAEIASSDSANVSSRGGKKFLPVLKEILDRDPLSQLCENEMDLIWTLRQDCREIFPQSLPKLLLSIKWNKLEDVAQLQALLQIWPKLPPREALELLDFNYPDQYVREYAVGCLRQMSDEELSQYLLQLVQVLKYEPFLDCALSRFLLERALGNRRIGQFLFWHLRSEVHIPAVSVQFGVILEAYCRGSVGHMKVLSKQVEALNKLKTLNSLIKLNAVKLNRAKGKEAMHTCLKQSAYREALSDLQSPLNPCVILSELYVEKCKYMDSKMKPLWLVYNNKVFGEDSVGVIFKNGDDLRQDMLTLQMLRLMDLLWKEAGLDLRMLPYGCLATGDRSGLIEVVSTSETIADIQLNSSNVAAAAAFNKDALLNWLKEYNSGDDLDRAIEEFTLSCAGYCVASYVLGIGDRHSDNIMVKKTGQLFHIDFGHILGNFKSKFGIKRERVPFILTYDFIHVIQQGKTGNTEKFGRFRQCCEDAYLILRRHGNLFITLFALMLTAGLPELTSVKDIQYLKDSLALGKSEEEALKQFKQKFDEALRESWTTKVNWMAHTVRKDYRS
p110β, sequence (P27986 whole entry partner, species assumed): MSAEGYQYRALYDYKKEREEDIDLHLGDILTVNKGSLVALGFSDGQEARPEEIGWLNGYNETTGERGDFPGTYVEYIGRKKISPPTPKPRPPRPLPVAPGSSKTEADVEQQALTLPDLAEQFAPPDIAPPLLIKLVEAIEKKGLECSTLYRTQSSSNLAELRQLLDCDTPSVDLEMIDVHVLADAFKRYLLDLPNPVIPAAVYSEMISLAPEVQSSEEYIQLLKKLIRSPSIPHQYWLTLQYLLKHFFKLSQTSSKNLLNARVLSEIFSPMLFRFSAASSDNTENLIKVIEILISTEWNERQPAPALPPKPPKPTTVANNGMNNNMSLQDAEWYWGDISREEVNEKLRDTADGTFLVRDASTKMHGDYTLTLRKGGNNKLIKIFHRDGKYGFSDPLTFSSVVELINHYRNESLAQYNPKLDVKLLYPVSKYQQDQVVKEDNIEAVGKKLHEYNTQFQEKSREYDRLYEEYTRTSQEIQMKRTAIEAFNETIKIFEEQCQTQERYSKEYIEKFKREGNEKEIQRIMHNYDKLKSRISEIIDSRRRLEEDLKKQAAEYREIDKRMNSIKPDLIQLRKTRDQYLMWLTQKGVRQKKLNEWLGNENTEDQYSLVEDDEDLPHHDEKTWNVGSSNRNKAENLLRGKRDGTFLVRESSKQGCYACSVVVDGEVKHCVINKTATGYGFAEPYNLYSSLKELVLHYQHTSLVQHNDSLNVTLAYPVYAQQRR

With `Cc1nc(-c2cn3c(n2)-c2ccc(-c4cnn(C(C)(C)C(N)=O)c4)cc2OCC3)n(C(C)C)n1` [Taselisib], the “lower potency of p110β inhibition” value is given as 30 fold.
